Eleven molecules from patent publication US20040127511A1 (Pharmacia Corporation, priority 2002, published 2004) can be followed below.

Counter-ions that a name gives are not always drawn. Like-named read-outs stand apart in the source and are kept apart here.

Assay [1] has as its target MAPKAPK2 (Homo sapiens, UniProt P49137). The assay can be described thus: biochemical. It is filed as biochemical.
Method: The phosphorylation of HSP-peptide ([sequence]) by MAPKAPK2 was measured using an anion exchange resin capture assay method. […] The reaction was terminated and [γ^33P]ATP was removed from solution by the addition of 150 μl of AG 1×8 ion exchange resin in 900 mM sodium formate pH 3.0. A 50 μl aliquot of head volume was removed from the quenched reaction mixture and added to a 96-well plate, 150 μl of Microscint-40 (Packard) was added and the amount of phosphorylated-peptide was determined.
Compounds are evaluated as potential inhibitors of the MK2 kinase by measuring their effects on MK2 phosphorylation of the peptide substrate. Compounds may be screened initially at two concentrations prior to determination of IC50 values. Screening results are expressed as percent inhibition at the concentrations of compound tested. For IC50 value determinations, compounds are tested at six concentrations in ten-fold serial dilutions with each concentration tested in triplicate. Results are expressed as IC50 values in micromolar. The assay is performed at a final concentration of 2% DMSO.
For assay [2], the system named is LPS-induced TNFα production. Put plainly: Rat LPS assay: Lipopolysaccharide (LPS)-Induced TNFα Production. The note with it: 20 mpk (IP); inhibition of serum TNFα vs vehicle. In kind it is in vivo.
Assay [3] has as its system TNFα release, U937 cells. Put plainly: U937 Cell TNFα Release Assay (LPS-stimulated, TNFα ELISA). It is filed as cell-based. The settings on record: Homo sapiens, read-out: TNFα release assay IC50. The method, then: U937 Cell TNFα Release Assay
The human monocyte-like cell line, U937 (ATCC #CRL-1593.2), is cultured in RPMI1640 media with 10% heat-inactivated fetal calf serum (GIBCO), glutamine and pen/strep at 37° C. and 5% CO2. Differentiation of U937 to monocytic/macrophage-like cells is induced by the addition of phorbol12-myristate 13-acetate (Sigma) at final concentration of 20 ng/ml to a culture of U937 cells at ˜0.5 million cells/ml and incubated for 24 hrs. The cells are centrifuged, washed with PBS and resuspended in fresh media without PMA and incubated for 24 hrs. Cells adherent to the culture flask are harvested by scraping, centrifugation, and resuspended in fresh media to 2 million cells/ml, and 0.2 ml is aliquoted to each of 96 wells in flat-bottom plate. Cells are then incubated for an additional 24 hrs to allow for recovery. […]
ELISA plates (NUNC-Immuno™ Plate Maxisorb™ Surface) were coated with purified mouse monoclonal IgG1 anti-human TNFα antibody (R&D Systems #MAB610; 1.25 ug/ml in sodium bicarbonate pH 8.0, 0.1 ml/well) and incubated at 4° C. […] Enzymatic conversion of ABTS to colored product was measured after 5-30 minutes using a SpectroMax 340 spectrophotometer (Molecular Devices) at 405 nm. TNF levels were quantitated from a recombinant human TNFα (R&D Systems #210-TA-010) standard curve using a quadratic parameter fit generated by SoftMaxPRO software. […]

Where [4] appears, read: HSP-peptide substrate, 0.03 mM ATP, 2% DMSO, read-out: MK-2 Avg. IC50.

Sequence of MAPKAPK2 (P49137 whole entry, species assumed): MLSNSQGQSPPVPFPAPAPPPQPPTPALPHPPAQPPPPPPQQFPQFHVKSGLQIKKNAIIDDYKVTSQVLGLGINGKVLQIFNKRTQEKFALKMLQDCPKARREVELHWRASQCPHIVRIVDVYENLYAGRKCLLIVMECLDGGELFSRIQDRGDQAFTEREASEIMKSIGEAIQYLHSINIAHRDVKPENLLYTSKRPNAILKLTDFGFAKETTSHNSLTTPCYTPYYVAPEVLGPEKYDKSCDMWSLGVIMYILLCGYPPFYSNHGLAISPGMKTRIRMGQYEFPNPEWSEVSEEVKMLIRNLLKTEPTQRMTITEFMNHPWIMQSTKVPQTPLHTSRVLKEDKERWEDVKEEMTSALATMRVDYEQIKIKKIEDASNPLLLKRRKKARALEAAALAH

One may read the IC50 as the concentration that gives 50% inhibition. As for `COc1cc(OC)c2c(c1)Oc1nc(N)c(C#N)c(N)c1C2` [No. 62, trifluoroacetate], the IC50 in assay [1] (setting [4]) is not below 200 µM. Take `COc1cc2c(cc1OC)Oc1nc(N)c(C#N)c(NCCN3C(=O)c4ccccc4C3=O)c1C2` [No. 94]: the IC50 in assay [1] (setting [4]) was not below 200 µM. As for `N#Cc1c(N)nc2c(c1N)Cc1ccc(OCCN3CCOCC3)cc1O2` [No. 28, trifluoroacetate], in assay [1], the IC50 was determined as 0.91 µM. Regarding `Cc1ccc2c(c1)Oc1nc(N)c(C#N)c(N)c1C2` [No. 42, trifluoroacetate], in assay [1] (setting [4]), the IC50 is not below 200 µM. For the molecule `N#Cc1c(N)nc2c(c1N)Cc1ccc(OCCN3CCCC3)cc1O2.O=C(O)C(F)(F)F` [No. 25, 2,4-diamino-8-(2-pyrrolidin-1-ylethoxy)-5H-chromeno[2,3-b]pyridine-3-carbonitrile], in assay [2], the “Rat LPS Assay inhibition” value is listed as 60%. Besides, in assay [3] (U-937, differentiated U937 cells, LPS 100 ng/ml, 4 hrs), the IC50 is 2.9 µM.

`N#Cc1c(N)nc2c(c1N)Cc1ccc(OCCN)cc1O2` [No. 19, 2,4-diamino-8-(2-aminoethoxy)-5H-chromeno[2,3-b]pyridine-3-carbonitrile hydrochloride]: in assay [2], the “Rat LPS Assay inhibition” value is 88%. For the same molecule, the IC50 in assay [3] (U-937, 4 h) is 6.9 µM. As to `COc1cccc2c1Cc1c(nc(N)c(C#N)c1N)O2` [No. 70, trifluoroacetate], the IC50 in assay [1] (setting [4]) is not below 200 µM.

Molecule `N#Cc1c(N)nc2c(c1N)Cc1cccc(C(=O)O)c1O2` [No. 81, trifluoroacetate] displayed an IC50 in assay [1] not below 200 µM.

`CCNc1nc2c(c(NCC)c1C#N)Cc1cc(OC)c(OC)cc1O2` [No. 103, trifluoroacetate]: in assay [1] (setting [4]), the IC50 is not below 200 µM. As to `N#Cc1c(N)nc2c(c1N)Cc1cccc(OCc3ccncc3)c1O2` [No. 83], the concentration for half-maximal inhibition (IC50) in assay [1] (setting [4]) is not below 200 µM. Same read-out and setting: the result for `N#Cc1c(N)nc2c(c1N)Cc1cc(OC(F)(F)F)ccc1O2` [No. 70, trifluoroacetate] reads not below 200 µM.
